Source: patent US10287259B2, “Selenazolidine and thiazolidine compounds for treating cancer and other diseases” (The Penn State Research Foundation, priority 2016, dated 2019)

How the values were obtained:
Assay type in all cases: cell-based
NF-κB p65 = test: Immunocytochemistry for NF-κB p65 localization; details: Panc-1, 10 μM 6 h, TNF-α 30 min
Protocol: Immunocytochemistry was used to determine the translocation of p65 from cytoplasm to nucleus in presence of inflammatory stimuli either with vehicle or AS-10 (10 μM). In a 12 well plate, Panc-1 cells (1.6×10^5) were seeded on top of a small cover slip in DMEM medium. Cells were allowed to attach to the cover slip overnight at 37° C. incubator with 5% CO2. The next day, cells were treated with 10 μM AS-10 for 6 h and further stimulated with TNF-α (100 ng/mL, 3.9 nM) for 30 min. Exactly after 30 min plates were kept on ice and cells were fixed with 4% Formaldehyde Solution made in PBS for 15 min. Cells were washes three times with 1×PBS, followed by 1 h incubation in blocking medium (0.3% Triton X-100, 5% donkey serum, made in 1×PBS) at room temperature in dark. After blocking coverslips were incubated with primary antibody solution (primary antibody diluted 1:500 in 1% BSA solution containing 0.3% Triton X-100) over night at 4° C. Next day, primary antibody was removed and cover slips were washed three times with 1×PBS. Following incubation with 0.03% H2O2 for 15 minutes at room temperature in dark. After the incubation, secondary antibody (Alexa fluor 680) was added at dilution of 1:500 in 1% BSA containing 0.3% triton X-100 and further incubated for 1 hr. […]

Panc-1 cells [1] = test: MTT cell viability assay, Panc-1; details: for IC50: Homo sapiens
Protocol: (§1) MTT (3-(4,5-dimethylthiazol-2-yl)-2,5-diphenyltetrazolium) assay was performed to determine the effect of AS-10 on cancer cell viability (Plano et al., 2016, J. Med. Chem. 1946-1959; Alcolea et al., 2012, Eur. J. Med. Chem. 113:134-144; Kumar et al., 2014, Eur. J. Med. Chem. 81:267-276). Briefly, 3×10^3 cells were treated with different concentrations of AS-10 in triplicate in a 96-well plate for different time points. MTT solution (20 μL of 5.0 mg/mL solution) was added to each well, three hours prior to termination time point and incubated at 37° C. Resultant formazan crystals, at termination time point, were dissolved in 50 μL DMSO. The plate was subjected to a 96-well multiscanner (Dynex Technologies, MRX Revelation; Chantilly, Va., USA) for measuring the optical densities at 570 nm and 630 nm. IC50 values were determined by performing non-linear regression using Graphpad Prism software.
To test the anti-cancer activity of AS-10 in pancreatic cancer (PC) cell lines, a MTT assay was performed. PC cell lines, Panc-1 and BxPC3, were treated with AS-10 at different doses at different time points (24, 48, and 72 h). Resulting cells were subjected to MTT cell viability assay. […] Panc-1 cells were treated with different doses of AS-10 for 48 h. After 48 h, live cells were counted and plated in a new petri dish. Cells were allowed to form colonies for 17 days. At the end of 17 days the colonies were counted and compared to the untreated cells.

BxPC3 cells = test: MTT cell viability assay, BxPC3; details: Homo sapiens, BXPC-3, different time points (24, 48, 72 h)
Protocol: as §1
To test the anti-cancer activity of AS-10 in pancreatic cancer (PC) cell lines, a MTT assay was performed. PC cell lines, Panc-1 and BxPC3, were treated with AS-10 at different doses at different time points (24, 48, and 72 h). Resulting cells were subjected to MTT cell viability assay. […] After 48 h, live cells were counted and plated in a new petri dish. […] At the end of 17 days the colonies were counted and compared to the untreated cells.

Panc-1 cells [2] = test: Muse caspase 3/7 activity assay; details: Panc-1, 10 μM
Protocol: To evaluate the efficacy of AS-10 in inducing caspase 3, Panc-1 cells were treated with AS-10 at different concentrations for different time points. Caspase 3/7 activity was measured using Muse Caspase-3/7 Assay kit with Muse cell analyzer (EMD Millipore, Billercia, Mass. USA) according to manufacturer's protocol (Plano et al., 2016, J. Med. Chem. 1946-1959). In brief, the Muse Caspase 3/7 kit contains a reagent namely NucView for detection of activated caspase 3/7. The reagent is cell membrane permeable and contains a DNA binding dye that is linked to a DEVD peptide substrate. In presence of activated caspase 3/7, DEVD is cleaved and DNA binding dye is released. Therefore, cells with active caspase 3/7 activity will yield high fluorescence. (Ref Millipore, Catlog No. MCH100108). The kit also contains a dead cell marker, 7-AAD, for detection of cells with compromised cell membrane. Data from Muse cell analyzer were analyzed using Muse 1.4 software.

Panc-1 cells [3] = test: Colony formation assay; details: 48 h treatment, colonies for 17 days
Protocol: Crystal violet staining method was utilized for performing colony formation assay (Franken et al., 2006, Nat. protoc. 1:2315-2319). In brief, Panc-1 cells were treated with vehicle control (DMSO). 2.5 μM or 10 μM of AS-10 for 48 h. After 48 h treatment period, cells were trypsinized and live cells were counted using tryphan blue dye exclusion assay. Tissue culture plates of size 60×15 mm were seeded with 100 live cells from vehicle treated and 5000 live cells from AS-10 treated cells. Cells were allowed to form colonies for 17 days in DMEM free from DMSO or AS-10 at 37° C. in a 5% CO2 chamber. After 17 days' colonies were stained with 0.5% alcoholic crystal violet. Percentage Plating efficiency (PE) was calculated by the formula: % PE=number of colonies*100/number of cells plated. Data plotted as % relative PE.

Panc-1 cells [4] = test: Cell cycle analysis by flow cytometry; details: serum starved 72 h; 24 h to 60 h time points
Protocol: Flow cytometry was used to determine the cell cycle phases (Plano et al., 2016, J. Med. Chem. 1946-1959). In brief, Panc-1 cells were serum starved for 72 h, followed by treatment with different doses of AS-10 in 10% serum containing media for different time points. Treated cells were fixed in 70% cold ethanol at the end of each time point. Cells were fixed for a minimum of 4 h at 4° C. Following fixation, cells were washed with 1×PBS and were re-suspended in Propidium iodide (PI) staining solution (0.1% (v/v) triton X-100, 20 mg DNAse-free RNAse A and 2 mg of PI in 100 mL PBS). Cells were incubated in the staining solution for 15 minutes at room temperature and then analyzed by a BD FACS Calibur (BD Biosciences) for total DNA content. Modfit software (BD Biosciences) was used to obtain the histograms.

[5] = tested on: Mouse embryonic fibroblast cells (MEFs); test: cells
Protocol: as §1
To determine that AS-10 was selectively toxic to cancer cells, the effect of AS-10 in normal Mouse embryonic fibroblast cells (MEFs) was tested using MTT assay. MEFs were treated with AS-10 for 48 h and the data was compared with Panc-1 cells, treated for 48 h. […] At the dose which yields 50 percent growth inhibition in PC cells, AS-10 had no effect on MEFs growth.

CC(=O)Oc1ccccc1C(=O)/N=C1\[Se]CCN1C(=O)c1ccccc1OC(C)=O [AS-10, 2-((3-(2-acetoxybenzoyl)-1,3-selenazolidin-2-ylidene)carbamoyl)phenyl acetate]
translocation of p65 to the nucleus (NF-κB p65): unable to translocate to the nucleus
IC50 (Panc-1 cells [1]; PANC-1, 48 h): 1000 to 2500 nM
IC50 (Panc-1 cells [1]; Panc-1, different time points (24, 48, 72 h)): 1000 to 5000 nM
potency relative to gemcitabine (Panc-1 cells [1]; Panc-1, 48 h): > 500 times
IC50 (BxPC3 cells): 1000 to 5000 nM
mode of cell death (caspase 3/7 activity, Annexin V) (Panc-1 cells [2]): die in an apoptotic manner
necrosis (cells only positive for 7-ADD) (Panc-1 cells [2]): did not induce necrosis
colonies formed compared to vehicle treated cells (Panc-1 cells [3]): effectively decreased the amount of colonies formed
cell cycle effect (Panc-1 cells [4]): cell cycle arrest in G1 and G2/M phase and total inhibition of S phase
effect on MEFs growth [5]: no effect
IC50 ([5]; Mus musculus, Fibroblast, read-out: IC50, normal (Mouse Embryonic Fibroblasts) cells): > 50000 nM
